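Following 48 hours of exposure in 96-well plates, responses at five concentrations were used to interpolate endpoints linearly. GI50 marks 50% less growth. TGI: concentration producing complete growth inhibition.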 Where a SMILES comes first, the peptide text is derived from it. Bridges are numbered along the chain shown (N, C = ends).

Test systems include K-562 leukemia; 786-0 renal; HOP-92 NSCLC; LOX IMVI melanoma; UO-31 renal; KM12 colon; HCT-116 colon; UACC-62 melanoma; NCI-H226 lung; MOLT-4 leukemia.
Assay in all cases: NCI-60 cell line screen, 48 h

Regarding `CC(O)(c1ccc(OCCC[N+](C)(C)C)cc1)C(C)(O)c1ccc(OCCC[N+](C)(C)C)cc1` (centres undefined), the TGI in the experiment on K-562 leukemia, in the experiment with 786-0 renal, in the experiment with HOP-92 NSCLC, in the experiment with LOX IMVI melanoma, with UO-31 renal and in the experiment with KM12 colon was above 100 µM throughout. In addition, the TGI with HCT-116 colon, in the experiment with UACC-62 melanoma and in the experiment on NCI-H226 lung was above 100 µM each time.
Turning to `COC1/C=C/OC2(C)Oc3c(C)c(O)c4c(O)c(c(/C=N/N(c5ccccc5)c5ccccc5)c(O)c4c3C2=O)NC(=O)C(C)=C/C=C/C(C)C(O)C(C)C(O)C(C)C(OC(C)=O)C1C` (centres undefined), the GI50 with K-562 leukemia is 1.59 µM; with 786-0 renal it was 1.63 µM; in the experiment on HOP-92 NSCLC it was 0.867 µM; in the experiment on LOX IMVI melanoma, 1.04 µM; with UO-31 renal, 3.02 µM; in the experiment on KM12 colon, 1.65 µM. The values for the GI50 in the experiment with HCT-116 colon, in the experiment with UACC-62 melanoma and in the experiment with NCI-H226 lung were 0.858 µM, 0.992 µM and 4.23 µM, respectively. Moreover, the TGI in the experiment with K-562 leukemia is 5.69 µM; with 786-0 renal, 5.96 µM; in the experiment with HOP-92 NSCLC, 2.86 µM; in the experiment with LOX IMVI melanoma it was 2.41 µM; in the experiment on UO-31 renal, 12 µM; with KM12 colon it was 6.45 µM. Moreover, the TGI in the experiment with HCT-116 colon was 1.76 µM; in the experiment with UACC-62 melanoma it was 2.58 µM; with NCI-H226 lung, 11.8 µM.
For `Cc1cc(C(=O)CC(Cl)=C(Cl)Cl)c(Cl)cc1Cl`, the GI50 is 20.7 µM in the experiment with K-562 leukemia; 22.1 µM in the experiment with 786-0 renal; 17.6 µM with LOX IMVI melanoma; 22.5 µM in the experiment on UO-31 renal; 18.2 µM with KM12 colon; 19.1 µM in the experiment on HCT-116 colon. The GI50 with UACC-62 melanoma was 18.4 µM; in the experiment with NCI-H226 lung it was 23.9 µM. Further, the TGI in the experiment on K-562 leukemia came to 47.6 µM; in the experiment with 786-0 renal, 42.1 µM; in the experiment with LOX IMVI melanoma, 33.8 µM; with UO-31 renal, 55.4 µM; in the experiment on KM12 colon, 42.1 µM; in the experiment with HCT-116 colon, 33.2 µM. For the same compound, the TGI in the experiment with UACC-62 melanoma amounted to 39.3 µM; with NCI-H226 lung, 76.3 µM.
Regarding `Nc1nc(N)c(CCCCc2ccccc2)c(/C=C/c2ccc([N+](=O)[O-])cc2)n1`, the TGI with MOLT-4 leukemia amounted to 4.16 µM; in the experiment with 786-0 renal, 7.34 µM; with HOP-92 NSCLC it was 2.21 µM; in the experiment with LOX IMVI melanoma, 13.5 µM; with UO-31 renal, 8.51 µM; in the experiment on KM12 colon, 10.8 µM. The TGI in the experiment on HCT-116 colon amounted to 6.52 µM; in the experiment with UACC-62 melanoma, 7.46 µM; in the experiment on NCI-H226 lung it was 55.6 µM.
For `CCCCCCCCC1C(C)c2c([nH]c3ccccc23)C2C(=O)N(c3ccccc3)C(=O)C21` (centres undefined), the TGI in the experiment with K-562 leukemia came out at 14.7 µM; in the experiment on MOLT-4 leukemia, 7.18 µM; in the experiment on 786-0 renal, 26.5 µM; in the experiment with UO-31 renal it was 28.5 µM; in the experiment on KM12 colon, 13.5 µM; with HCT-116 colon, 12.5 µM. The TGI in the experiment with UACC-62 melanoma turned out to be 36.4 µM; in the experiment on NCI-H226 lung, 25.9 µM.
In the case of `C#Cc1cccc(Nc2ncnc3ccc(-c4cnc(N)nc4)cc23)c1`, the GI50 is 3.42 µM with K-562 leukemia; 2.67 µM in the experiment on 786-0 renal; 0.211 µM in the experiment on HOP-92 NSCLC; 2.78 µM in the experiment with LOX IMVI melanoma; 0.515 µM with UO-31 renal; 4.57 µM in the experiment on KM12 colon. Further, the GI50 with HCT-116 colon was 4.75 µM; in the experiment with UACC-62 melanoma it was 1.83 µM; in the experiment on NCI-H226 lung, 1.98 µM. Further, the TGI in the experiment on K-562 leukemia was above 100 µM; in the experiment on 786-0 renal, 14.8 µM; with HOP-92 NSCLC, 3.15 µM; with LOX IMVI melanoma, 11.3 µM; in the experiment on UO-31 renal, 7.75 µM; in the experiment on KM12 colon, 20.8 µM. The TGI stood at 17.3 µM in the experiment on HCT-116 colon, 11.4 µM in the experiment with UACC-62 melanoma and 12.8 µM with NCI-H226 lung.
For `CCN(CC)CCNc1ccc(N=Nc2cnc3ccccc3c2)c2ccccc12`, the GI50 is 1.03 µM in the experiment on K-562 leukemia; 1.56 µM in the experiment with MOLT-4 leukemia; 1.93 µM in the experiment on 786-0 renal; 1.43 µM in the experiment with LOX IMVI melanoma; 1.51 µM in the experiment on UO-31 renal; 1.56 µM with KM12 colon. The values for the GI50 in the experiment on HCT-116 colon, with UACC-62 melanoma and in the experiment with NCI-H226 lung were 1.51 µM, 1.7 µM and 1.71 µM, respectively. Also, the TGI in the experiment with K-562 leukemia stood at 2.3 µM; in the experiment on MOLT-4 leukemia it was 3.03 µM; in the experiment with 786-0 renal it was 3.35 µM; in the experiment with LOX IMVI melanoma it was 2.77 µM; in the experiment on UO-31 renal, 3.05 µM; with KM12 colon it was 2.89 µM. In addition, the TGI was 2.84 µM in the experiment with HCT-116 colon, 3.21 µM in the experiment with UACC-62 melanoma and 3.66 µM in the experiment on NCI-H226 lung.
As to `O=C(CS(=O)c1nc2ccccc2nc1-c1ccccc1)Nc1ccc(Cl)cc1` (centres undefined), the GI50 in the experiment on MOLT-4 leukemia is 24.4 µM; with 786-0 renal, 26.5 µM; in the experiment with HOP-92 NSCLC it was 12.3 µM; in the experiment with LOX IMVI melanoma, 17.5 µM; in the experiment on UO-31 renal, 25 µM; in the experiment on KM12 colon, 21.7 µM. The GI50 with HCT-116 colon was 16 µM; with UACC-62 melanoma, 16 µM; in the experiment on NCI-H226 lung it was 23.1 µM. Further, the TGI in the experiment on MOLT-4 leukemia was 69.3 µM; in the experiment on 786-0 renal, 71.7 µM; in the experiment with HOP-92 NSCLC, 49.2 µM; in the experiment with LOX IMVI melanoma it was 33.6 µM; with UO-31 renal, above 100 µM; in the experiment on KM12 colon, 55.2 µM. For the same compound, the TGI in the experiment on HCT-116 colon was determined as 33.1 µM; in the experiment on UACC-62 melanoma, 40.7 µM; in the experiment on NCI-H226 lung, 47.8 µM.
In the case of `COC(=O)/C(=N\Nc1nc(=S)[nH]n1N)C(C#N)c1ccc(Cl)cc1` (centres undefined), the TGI in the experiment on 786-0 renal, in the experiment with HOP-92 NSCLC, in the experiment with LOX IMVI melanoma, in the experiment on UO-31 renal, in the experiment with KM12 colon and in the experiment with HCT-116 colon was above 100 µM throughout. Besides, the TGI in the experiment on UACC-62 melanoma and with NCI-H226 lung was above 100 µM throughout.
On to `CCC(C)C1NC(=O)C(CC(C)C)NC(=O)C(C(C)C)NC(=O)C2CSSCC(NC1=O)C(=O)N2` (centres undefined) (cyclo(CCVLI); disulfide 1-2; configuration not given here), for which the TGI is 0.315 µM with 786-0 renal; 0.248 µM with HOP-92 NSCLC; 0.239 µM in the experiment on LOX IMVI melanoma; 5.84 µM in the experiment with UO-31 renal; 0.223 µM in the experiment on KM12 colon; 0.187 µM in the experiment with HCT-116 colon. This compound yielded a TGI in the experiment with UACC-62 melanoma of 0.228 µM.

The values are drawn from PubChem BioAssay (NCI).
